Two compounds from ChEMBL document CHEMBL1124908, “Synthesis and antiviral activity of 3'-deoxy-3'-C-hydroxymethyl nucleosides” (J Med Chem, 1990) can be followed below.

Assay [1] deals with Human alphaherpesvirus 3. Description: Minimum inhibitory concentration which is active against Varicella zoster virus (VZV); value ranges from 0.0002-0.003 ug/mL. The assay is classed as functional.
The subject of assay [2] is Human alphaherpesvirus 1. Description: Minimum inhibitory concentration which is active against herpes simplex virus type-1 (HSV-1); value ranges from 0.007-0.01 ug/mL. The assay is classed as functional.
Assay [3] deals with Human alphaherpesvirus 3. Description: Anti-viral activity which is required for the inhibition of VZV (Varicella zoster virus ). The assay is classed as functional, organism-based.
For assay [4], the system named is CV-1. Description: Inhibitory concentration which is active against Varicella zoster virus (VZV) in CV-1 cells. The assay is classed as functional, cell-based, Cercopithecidae. Conditions: Chlorocebus aethiops.
In assay [5] the test system is MRC5. Description: Inhibitory concentration which is active against Varicella zoster virus (VZV) in MRC-5 cells. The assay is classed as functional, cell-based. Conditions: Homo sapiens.

In brackets after ≈: the same amount, converted by molar mass.

As usually defined, the IC50 is the concentration that gives 50% inhibition. Lower therefore signals greater potency in that assay. In the case of `O=c1[nH]c(=O)n([C@H]2C[C@H](O)[C@@H](CO)O2)cc1/C=C/Br` [BRIVUDINE], the results for the MIC in assay [1] and in assay [2] were 0.2 ng/mL (≈ 0.0006 µM) and 7 ng/mL (≈ 0.021 µM), respectively. Further, it took 2.4 ng/mL (≈ 0.0072 µM) to reach half-maximal inhibition in assay [3] (IC50).
Turning to `O=c1[nH]c(=O)n(C2O[C@H](CO)[C@H](CO)[C@H]2O)cc1/C=C/Br` (stereo not given in full), the half-inhibitory concentration (IC50) in assay [4] was 4400 ng/mL (≈ 12.1 µM); in assay [5] it was 15300 ng/mL (≈ 42.1 µM).
